Results published in ChEMBL document CHEMBL1136683, “Potent and selective aggrecanase inhibitors containing cyclic P1 substituents” (Bioorg Med Chem Lett, 2003).

Tests used:
[1] = molecular target: Matrix metalloproteinase-9 (Homo sapiens, UniProt P14780); assay: Affinity for Matrix metalloprotease-9 (MMP-9)
[2] = Inhibition of bovine aggrecanase; set-up: species or system Bos taurus
[3] = Systemic clearance after intravenous administration (0.5 mg/kg) was determined in dog; assay type: ADME, organism-based, Canis lupus familiaris; settings: in vivo
[4] = Systemic clearance after intravenous administration (5.0 mg/kg) was determined in rat; assay type: ADME, organism-based; settings: in vivo
[5] = Bioavailability after peroral administration (10 mg/kg) was determined in rat; assay type: ADME, organism-based; settings: in vivo, po
[6] = Vss after intravenous administration (5.0 mg/kg) was determined in rat; assay type: ADME, organism-based; settings: in vivo, read-out: Vss
[7] = Vss after intravenous administration (0.5 mg/kg) was determined in dog; assay type: ADME, organism-based, Canis lupus familiaris; settings: in vivo, read-out: Vss
[8] = Bioavailability after peroral administration (1 mg/kg) was determined in dog; assay type: ADME, organism-based, Canis lupus familiaris; settings: in vivo, po
[9] = Tmax after peroral administration (10 mg/kg) was determined in rat; assay type: ADME, organism-based; settings: in vivo, po
[10] = Tmax after peroral administration (1 mg/kg) was determined in dog; assay type: ADME, organism-based, Canis lupus familiaris; settings: in vivo, po
[11] = Half life time after intravenous administration (5.0 mg/kg) was determined in rat; assay type: ADME, organism-based; settings: in vivo
[12] = Half life time after intravenous administration (0.5 mg/kg) was determined in dog; assay type: ADME, organism-based, Canis lupus familiaris; settings: in vivo

Matrix metalloproteinase-9, sequence (P14780 whole entry): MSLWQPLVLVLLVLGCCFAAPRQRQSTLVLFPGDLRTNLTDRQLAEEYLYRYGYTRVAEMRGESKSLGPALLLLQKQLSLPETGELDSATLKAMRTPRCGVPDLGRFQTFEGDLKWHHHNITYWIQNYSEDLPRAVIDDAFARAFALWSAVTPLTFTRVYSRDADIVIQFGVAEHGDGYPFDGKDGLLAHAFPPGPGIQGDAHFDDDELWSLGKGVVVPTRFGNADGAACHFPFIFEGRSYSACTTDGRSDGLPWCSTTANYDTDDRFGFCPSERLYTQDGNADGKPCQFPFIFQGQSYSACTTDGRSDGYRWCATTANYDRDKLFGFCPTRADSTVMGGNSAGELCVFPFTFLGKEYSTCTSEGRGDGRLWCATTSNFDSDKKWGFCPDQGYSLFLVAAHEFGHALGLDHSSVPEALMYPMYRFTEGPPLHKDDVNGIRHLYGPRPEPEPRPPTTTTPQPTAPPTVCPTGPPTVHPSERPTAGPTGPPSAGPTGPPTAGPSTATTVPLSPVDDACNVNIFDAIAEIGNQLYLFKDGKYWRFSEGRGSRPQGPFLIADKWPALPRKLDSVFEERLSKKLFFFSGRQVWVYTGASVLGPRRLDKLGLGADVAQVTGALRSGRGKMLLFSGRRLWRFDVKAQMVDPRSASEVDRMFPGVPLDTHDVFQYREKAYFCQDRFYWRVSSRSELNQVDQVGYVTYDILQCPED

| SMILES | Ki [1] [nM] | IC50 [2] [nM] | further results |
| --- | --- | --- | --- |
| CCC(=O)N1CCC(C[C@H](C(=O)NO)[C@@H](Cc2cccc(O)c2)C(=O)N[C@H]2c3ccccc3C[C@H]2O)CC1 | > 2130 | 97 |  |
| O=C(NO)[C@@H](NCC1CC1)[C@@H](Cc1cccc(O)c1)C(=O)N[C@H]1c2ccccc2C[C@H]1O |  | 12 |  |
| CC(=O)N1CCC(CC(C(=O)NO)C(Cc2cccc(O)c2)C(=O)N[C@H]2c3ccccc3C[C@H]2O)CC1 (single isomer, unassigned) | > 2130 | 114 |  |
| O=C(N[C@H]1c2ccccc2C[C@H]1O)[C@H](Cc1cccc(O)c1)[C@@H](C(=O)NO)C1CCNCC1 | 4000 | 28 | clearance [3]: 1.67 mL/min/kg; clearance [4]: 8.33 mL/min/kg; bioavailability [5]: 1%; Vd [6]: 0.3 L/kg; Vd [7]: 0.2 L/kg; bioavailability [8]: 20%; Tmax [9]: 1.5 h; Tmax [10]: 4.3 h; half-life [11]: 240 min; half-life [12]: 228 min |
| O=C(N[C@H]1c2ccccc2C[C@H]1O)[C@H](Cc1cccc(O)c1)[C@@H](C(=O)NO)C1CNC1 | > 2130 | 7 |  |
| O=C(N[C@H]1c2ccccc2C[C@H]1O)[C@H](Cc1cccc(O)c1)[C@@H](C(=O)NO)C1CN(C(=O)C(F)(F)F)C1 | 1490 | 3 |  |

The next lines start with results.

| Ki [1] [nM] | IC50 [2] [nM] | SMILES | further results |
| --- | --- | --- | --- |
| > 2130 | > 1000 | CC(C)(C)OC(=O)N1CCC([C@H](C(=O)O)C(Cc2cccc(O)c2)C(=O)N[C@H]2c3ccccc3C[C@H]2O)CC1 (stereo not given in full) |  |
| 2100 | 3 | CS(=O)(=O)N1CCC([C@H](C(=O)NO)[C@@H](Cc2cccc(O)c2)C(=O)N[C@H]2c3ccccc3C[C@H]2O)CC1 |  |
| > 2130 | 210 | CN1CCC([C@H](C(=O)NO)[C@@H](Cc2cccc(O)c2)C(=O)N[C@H]2c3ccccc3C[C@H]2O)CC1 |  |
| 1740 | 29 | CC(=O)N1CCC(C(C(=O)NO)C(Cc2cccc(O)c2)C(=O)N[C@H]2c3ccccc3C[C@H]2O)CC1 (single isomer, unassigned) |  |
| > 2130 | 45 | CCN1CCC(C(C(=O)NO)C(Cc2cccc(O)c2)C(=O)N[C@H]2c3ccccc3C[C@H]2O)CC1 (single isomer, unassigned) |  |
| 832 | 7 | CCOC(=O)N1CCC([C@H](C(=O)NO)[C@@H](Cc2cccc(O)c2)C(=O)N[C@H]2c3ccccc3C[C@H]2O)CC1 |  |
| 1300 | 19 | CC(C)(C)OC(=O)N1CCC([C@H](C(=O)NO)[C@@H](Cc2cccc(O)c2)C(=O)N[C@H]2c3ccccc3C[C@H]2O)CC1 |  |
